In brackets after ≈: the same amount, converted by molar mass. Blank lines part the entries; values can stand above or below the compound they belong to.
How the values were obtained:
[1] = tested on: MDR1 (human); assay: Efflux ratio of permeability from basolateral to apical over apical to basolateral side in MDCK cells expressing human MDR1; format: ADME, cell-based, Canis lupus familiaris; conditions: dog
[2] = target: T1, Glutamate NMDA receptor; GRIN1/GRIN2A (Homo sapiens, UniProt Q05586+Q12879); assay: Positive allosteric modulation of GluN1/GluN2A receptor (unknown origin) expressed in CHO cells assessed as increase in glutamate-induced calcium flux at 125 uM measured at time interval of 5 mins in presence of saturating glycine by calcium dye-based fluorescence assay relative to glutamate; format: cell-based
[3] = target: T2, Glutamate receptor 2 (Homo sapiens, UniProt P42262); assay: Positive allosteric modulation of human GluA2 receptor flip isoform assessed as increase in glutamate-induced calcium flux at 125 uM measured at time interval of 5 mins in presence of saturating glycine by calcium dye-based fluorescence assay relative to glutamate; format: single protein
[4] = target: T2, Glutamate receptor 2; assay: Positive allosteric modulation of human GluA2 receptor flop isoform assessed as increase in glutamate-induced calcium flux at 125 uM measured at time interval of 5 mins in presence of saturating glycine by calcium dye-based fluorescence assay relative to glutamate; format: Functional, single protein
[5] = target: T1, Glutamate NMDA receptor; GRIN1/GRIN2A; assay: Positive allosteric modulation of GluN1/GluN2A receptor (unknown origin) expressed in CHO cells assessed as increase in glutamate-induced calcium flux measured at time interval of 5 mins in presence of saturating glycine by calcium dye-based fluorescence assay; format: cell-based
[6] = target: T2, Glutamate receptor 2; assay: Positive allosteric modulation of human GluA2 receptor flop isoform assessed as increase in glutamate-induced calcium flux measured at time interval of 5 mins in presence of saturating glycine by calcium dye-based fluorescence assay; format: Functional, single protein
[7] = target: T2, Glutamate receptor 2; assay: Positive allosteric modulation of human GluA2 receptor flip isoform assessed as increase in glutamate-induced calcium flux measured at time interval of 5 mins in presence of saturating glycine by calcium dye-based fluorescence assay; format: Functional, single protein
[8] = Activity at AMPA receptor in mouse hippocampal brain slices assessed as electrical stimulation-induced excitatory post synaptic potential at -70 mV holding potential by electrophysiology method; format: ADME
[9] = target: T1, Glutamate NMDA receptor; GRIN1/GRIN2A; assay: Deactivation of GluN1/GluN2A receptor (unknown origin) expressed in CHO cells assessed as time constant for signal decay at 1 uM preincubated followed by glutamate addition in presence of saturating glycine measured after glutamate removal by electrophysiology method; format: cell-based
[10] = Lipophilicity, log D of the compound; format: physicochemical; conditions: octanol/water
[11] = Unbound Cmax in mouse at 5 mg/kg, po; format: ADME, organism-based; conditions: in vivo
[12] = Volume of distribution at steady state in mouse at 0.5 mg/kg, iv; format: ADME, organism-based; conditions: in vivo, read-out: Vdss
[13] = Protein binding in mouse plasma; format: ADME, cell-free; conditions: read-out: PPB (converted)
[14] = Half life in mouse at 0.5 mg/kg, iv; format: ADME, organism-based; conditions: in vivo
[15] = Unbound AUClast in mouse at 5 mg/kg, po; format: ADME, organism-based; conditions: in vivo
[16] = target: Glutamate NMDA receptor; GRIN1/GRIN2B (Homo sapiens, UniProt Q05586+Q13224); assay: Positive allosteric modulation of GluN1/GluN2B receptor (unknown origin) expressed in HEK293 cells assessed as increase in glutamate-induced calcium flux at 125 uM measured at time interval of 5 mins in presence of saturating glycine by calcium dye-based fluorescence assay relative to glutamate; format: ADME, cell-based
[17] = Unbound clearance in mouse blood at 0.5 mg/kg, iv; format: ADME, organism-based; conditions: in vivo
[18] = target: Ionotropic glutamate receptor NMDA 1/2D (Homo sapiens, UniProt O15399+Q05586); assay: Positive allosteric modulation of GluN1/GluN2D receptor (unknown origin) assessed as increase in glutamate-induced calcium flux measured at time interval of 5 mins in presence of saturating glycine by calcium dye-based fluorescence assay
[19] = Selectivity ratio of EC50 for GluN1/GluN2B receptor (unknown origin) expressed in HEK293 cells to EC50 for GluN1/GluN2A receptor (unknown origin) expressed in CHO cells; format: cell-based; conditions: human
[20] = Ratio of unbound concentration in brain to plasma in mouse at 5 mg/kg, po at 1 hr; format: ADME, organism-based; conditions: brain and plasma, read-out: K(p,uu,brain)
[21] = Oral bioavailability in mouse at 5 mg/kg; format: ADME, organism-based; conditions: in vivo
[22] = Clearance in mouse blood at 0.5 mg/kg, iv; format: ADME, organism-based
[23] = target: Ionotropic glutamate receptor NMDA 1/2C (Homo sapiens, UniProt Q05586+Q14957); assay: Positive allosteric modulation of GluN1/GluN2C receptor (unknown origin) assessed as increase in glutamate-induced calcium flux measured at time interval of 5 mins in presence of saturating glycine by calcium dye-based fluorescence assay
[24] = Selectivity ratio of EC50 for human GluA2 flip isoform receptor to EC50 for GluN1/GluN2A receptor (unknown origin) expressed in CHO cells; format: ADME, cell-based
[25] = Ratio of fCmax in mouse at 5 mg/kg, po to EC50 for GluN2A receptor (unknown origin) expressed in CHO cells co-expressing GluN1 receptor
[26] = Drug uptake in mouse brain; format: ADME, tissue-based; conditions: in vivo
[27] = Protein binding in human plasma; format: ADME, cell-free; conditions: read-out: PPB (converted)
[28] = Selectivity ratio of EC50 for human GluA2 flop isoform receptor to EC50 for GluN1/GluN2A receptor (unknown origin) expressed in CHO cells; format: ADME, cell-based
[29] = Kinetic solubility of the compound; format: physicochemical; conditions: read-out: Kinetic_solubility

T2 sequence (P42262 whole entry, canonical isoform): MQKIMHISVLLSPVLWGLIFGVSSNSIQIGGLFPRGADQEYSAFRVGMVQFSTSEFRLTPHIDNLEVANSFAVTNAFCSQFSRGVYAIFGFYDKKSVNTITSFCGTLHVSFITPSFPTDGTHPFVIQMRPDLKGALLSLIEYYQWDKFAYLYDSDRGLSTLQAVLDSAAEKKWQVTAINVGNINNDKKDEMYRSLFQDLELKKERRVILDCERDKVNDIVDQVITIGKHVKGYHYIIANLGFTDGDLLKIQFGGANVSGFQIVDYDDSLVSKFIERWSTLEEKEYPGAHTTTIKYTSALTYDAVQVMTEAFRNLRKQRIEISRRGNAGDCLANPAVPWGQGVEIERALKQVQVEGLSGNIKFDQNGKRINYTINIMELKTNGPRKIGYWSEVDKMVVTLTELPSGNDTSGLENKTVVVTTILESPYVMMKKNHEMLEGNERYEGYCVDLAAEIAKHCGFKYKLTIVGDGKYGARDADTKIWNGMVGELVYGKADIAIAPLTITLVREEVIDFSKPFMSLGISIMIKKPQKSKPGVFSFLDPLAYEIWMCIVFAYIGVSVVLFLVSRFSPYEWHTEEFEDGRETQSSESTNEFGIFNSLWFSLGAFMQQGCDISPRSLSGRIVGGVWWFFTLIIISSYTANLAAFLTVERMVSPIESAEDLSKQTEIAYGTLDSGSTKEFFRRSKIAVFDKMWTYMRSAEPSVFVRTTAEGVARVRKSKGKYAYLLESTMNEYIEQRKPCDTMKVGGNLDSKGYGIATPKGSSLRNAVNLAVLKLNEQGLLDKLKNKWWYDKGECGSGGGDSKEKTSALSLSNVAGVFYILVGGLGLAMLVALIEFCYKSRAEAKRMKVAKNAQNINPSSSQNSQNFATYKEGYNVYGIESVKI
Chain of Ionotropic glutamate receptor NMDA 1/2C (Q14957 whole entry, other chains not shown, canonical isoform): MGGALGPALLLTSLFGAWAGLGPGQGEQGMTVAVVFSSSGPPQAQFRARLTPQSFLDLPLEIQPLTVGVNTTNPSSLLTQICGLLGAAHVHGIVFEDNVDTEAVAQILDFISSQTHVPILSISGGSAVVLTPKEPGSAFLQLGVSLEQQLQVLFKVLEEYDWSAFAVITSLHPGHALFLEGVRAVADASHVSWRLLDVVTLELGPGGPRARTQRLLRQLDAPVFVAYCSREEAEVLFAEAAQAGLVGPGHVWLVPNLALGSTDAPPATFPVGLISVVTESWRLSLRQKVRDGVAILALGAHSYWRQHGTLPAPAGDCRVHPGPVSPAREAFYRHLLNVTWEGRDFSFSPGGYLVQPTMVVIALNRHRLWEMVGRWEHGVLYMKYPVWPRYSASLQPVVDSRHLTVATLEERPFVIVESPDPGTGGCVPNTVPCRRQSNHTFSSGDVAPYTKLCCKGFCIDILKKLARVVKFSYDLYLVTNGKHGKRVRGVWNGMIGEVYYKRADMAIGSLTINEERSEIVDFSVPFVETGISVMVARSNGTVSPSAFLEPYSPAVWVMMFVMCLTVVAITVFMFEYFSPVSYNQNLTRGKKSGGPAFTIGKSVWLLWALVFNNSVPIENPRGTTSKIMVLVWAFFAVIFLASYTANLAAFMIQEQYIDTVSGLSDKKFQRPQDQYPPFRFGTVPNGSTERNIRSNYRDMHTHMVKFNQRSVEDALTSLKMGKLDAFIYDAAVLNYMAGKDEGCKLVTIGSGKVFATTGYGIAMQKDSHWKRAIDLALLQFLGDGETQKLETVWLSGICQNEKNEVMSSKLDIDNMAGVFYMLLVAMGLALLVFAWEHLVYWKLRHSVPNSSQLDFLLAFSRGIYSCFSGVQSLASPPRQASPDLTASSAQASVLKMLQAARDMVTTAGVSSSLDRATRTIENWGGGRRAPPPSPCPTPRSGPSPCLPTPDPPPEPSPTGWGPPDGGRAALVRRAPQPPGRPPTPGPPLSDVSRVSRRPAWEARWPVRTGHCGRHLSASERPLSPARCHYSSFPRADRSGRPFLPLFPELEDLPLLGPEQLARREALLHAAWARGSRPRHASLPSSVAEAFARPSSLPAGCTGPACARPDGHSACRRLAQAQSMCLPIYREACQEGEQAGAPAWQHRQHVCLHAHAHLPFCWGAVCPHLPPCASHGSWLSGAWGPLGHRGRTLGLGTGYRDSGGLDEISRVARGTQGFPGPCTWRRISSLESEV
Chain of Ionotropic glutamate receptor NMDA 1/2D (O15399 whole entry, other chains not shown): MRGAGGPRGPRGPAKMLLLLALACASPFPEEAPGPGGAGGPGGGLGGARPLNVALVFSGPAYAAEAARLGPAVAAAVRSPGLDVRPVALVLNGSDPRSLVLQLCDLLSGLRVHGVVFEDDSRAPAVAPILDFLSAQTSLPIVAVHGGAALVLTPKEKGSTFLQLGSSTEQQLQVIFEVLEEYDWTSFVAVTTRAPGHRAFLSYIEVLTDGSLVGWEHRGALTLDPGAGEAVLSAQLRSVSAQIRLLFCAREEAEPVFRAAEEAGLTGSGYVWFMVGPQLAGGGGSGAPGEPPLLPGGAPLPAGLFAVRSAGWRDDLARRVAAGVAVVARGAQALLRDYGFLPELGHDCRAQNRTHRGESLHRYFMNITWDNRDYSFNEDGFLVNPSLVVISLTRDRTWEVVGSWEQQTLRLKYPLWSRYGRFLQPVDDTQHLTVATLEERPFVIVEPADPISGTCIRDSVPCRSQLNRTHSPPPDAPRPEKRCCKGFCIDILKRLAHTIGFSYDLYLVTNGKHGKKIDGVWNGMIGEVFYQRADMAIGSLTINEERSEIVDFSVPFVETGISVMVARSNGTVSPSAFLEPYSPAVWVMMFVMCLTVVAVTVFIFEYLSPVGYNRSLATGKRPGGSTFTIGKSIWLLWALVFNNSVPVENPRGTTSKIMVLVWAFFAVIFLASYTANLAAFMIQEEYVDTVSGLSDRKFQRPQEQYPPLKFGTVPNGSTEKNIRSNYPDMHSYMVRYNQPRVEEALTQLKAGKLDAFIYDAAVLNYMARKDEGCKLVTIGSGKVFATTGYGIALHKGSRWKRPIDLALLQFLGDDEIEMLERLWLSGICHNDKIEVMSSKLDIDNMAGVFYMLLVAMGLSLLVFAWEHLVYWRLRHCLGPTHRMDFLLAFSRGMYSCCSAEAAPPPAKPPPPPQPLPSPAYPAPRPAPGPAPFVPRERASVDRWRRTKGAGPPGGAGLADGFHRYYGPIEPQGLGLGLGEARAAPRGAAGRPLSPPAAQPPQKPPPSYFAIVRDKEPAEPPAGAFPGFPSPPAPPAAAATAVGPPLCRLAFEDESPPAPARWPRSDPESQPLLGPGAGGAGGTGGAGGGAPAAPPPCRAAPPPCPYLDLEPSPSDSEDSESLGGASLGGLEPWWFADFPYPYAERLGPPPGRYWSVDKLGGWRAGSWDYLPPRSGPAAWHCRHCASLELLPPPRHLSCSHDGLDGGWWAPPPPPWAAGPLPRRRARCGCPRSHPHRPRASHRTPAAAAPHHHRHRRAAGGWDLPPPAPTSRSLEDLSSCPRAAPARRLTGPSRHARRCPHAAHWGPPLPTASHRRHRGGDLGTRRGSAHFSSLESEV
Chain of Glutamate NMDA receptor; GRIN1/GRIN2B (Q13224 whole entry, other chains not shown): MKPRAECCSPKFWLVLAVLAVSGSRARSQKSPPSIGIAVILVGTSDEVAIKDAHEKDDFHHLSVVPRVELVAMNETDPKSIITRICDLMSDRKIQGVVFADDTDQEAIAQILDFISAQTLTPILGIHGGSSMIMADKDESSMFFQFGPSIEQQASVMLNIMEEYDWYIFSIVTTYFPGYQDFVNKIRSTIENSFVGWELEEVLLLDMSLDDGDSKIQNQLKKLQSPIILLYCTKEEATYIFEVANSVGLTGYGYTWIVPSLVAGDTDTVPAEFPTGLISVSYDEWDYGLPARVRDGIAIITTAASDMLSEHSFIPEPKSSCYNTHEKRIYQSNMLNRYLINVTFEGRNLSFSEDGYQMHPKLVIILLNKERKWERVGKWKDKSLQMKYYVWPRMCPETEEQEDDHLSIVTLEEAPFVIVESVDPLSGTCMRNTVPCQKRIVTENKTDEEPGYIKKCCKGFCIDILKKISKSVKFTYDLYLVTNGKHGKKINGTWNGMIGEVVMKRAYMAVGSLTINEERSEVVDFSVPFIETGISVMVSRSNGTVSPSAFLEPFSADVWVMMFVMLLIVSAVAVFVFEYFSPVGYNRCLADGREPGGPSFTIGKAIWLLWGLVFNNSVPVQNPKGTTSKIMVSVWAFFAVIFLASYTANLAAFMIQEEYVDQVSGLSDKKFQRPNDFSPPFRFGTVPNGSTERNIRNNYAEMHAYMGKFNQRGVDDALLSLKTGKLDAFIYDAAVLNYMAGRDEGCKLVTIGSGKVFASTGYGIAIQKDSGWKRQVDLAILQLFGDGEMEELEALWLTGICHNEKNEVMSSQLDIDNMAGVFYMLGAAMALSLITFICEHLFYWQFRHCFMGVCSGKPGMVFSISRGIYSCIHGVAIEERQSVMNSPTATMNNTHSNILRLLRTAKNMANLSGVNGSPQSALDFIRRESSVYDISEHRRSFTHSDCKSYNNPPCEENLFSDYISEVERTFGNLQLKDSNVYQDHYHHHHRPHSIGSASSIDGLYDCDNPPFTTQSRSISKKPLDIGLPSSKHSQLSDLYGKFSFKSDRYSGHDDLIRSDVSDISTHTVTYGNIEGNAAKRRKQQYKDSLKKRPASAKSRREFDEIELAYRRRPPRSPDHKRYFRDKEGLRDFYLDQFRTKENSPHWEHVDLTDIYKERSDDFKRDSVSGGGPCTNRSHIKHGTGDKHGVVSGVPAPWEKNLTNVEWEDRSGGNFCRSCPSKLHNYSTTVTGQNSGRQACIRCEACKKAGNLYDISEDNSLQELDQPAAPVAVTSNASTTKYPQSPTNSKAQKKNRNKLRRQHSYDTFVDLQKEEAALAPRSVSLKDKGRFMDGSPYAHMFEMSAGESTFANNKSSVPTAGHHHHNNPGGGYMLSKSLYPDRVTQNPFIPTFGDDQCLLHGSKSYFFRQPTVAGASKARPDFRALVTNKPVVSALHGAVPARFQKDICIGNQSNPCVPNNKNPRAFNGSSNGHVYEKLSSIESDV

SMILES: Cc1ccc2nc(Cn3nc(C(F)(F)F)cc3Cl)cc(=O)n2c1-c1cncnc1
- Emax [2]: 84%
- Emax at 125 µM [3]: 5%
- Emax at 125 µM [4]: 3%
- EC50 [5]: 9800 nM

SMILES: Cc1sc2nc(Cn3nc(C(F)(F)F)cc3Cl)cc(=O)n2c1[C@@H]1C[C@H]1C#N
- Emax [2]: 151%
- Emax at 125 µM [3]: 91%
- Emax at 125 µM [4]: 93%

SMILES: Cc1sc2nc(Cn3nc(C(F)(F)F)cc3Cl)cc(=O)n2c1-c1cncnc1
- EC50 [6]: 1200 nM
- Emax [2]: 88%
- EC50 [7]: 9600 nM
- Emax at 125 µM [3]: 28%
- Emax at 125 µM [4]: 9%
- EC50 [5]: 1400 nM

SMILES: CCNC(=O)c1c(C)ccc2nc(Cn3nc(C(F)(F)F)cc3Cl)cc(=O)n12
- Emax [2]: 129%
- Emax at 125 µM [3]: 1%
- Emax at 125 µM [4]: -1%
- EC50 [5]: 2500 nM

SMILES: COc1cc([C@@H]2C[C@H]2C#N)n2c(=O)cc(Cn3nc(C(F)(F)F)cc3Cl)nc2c1
- EC50 [6]: 2200 nM
- efflux ratio [1]: 2.2
- Emax [2]: 140%
- EC50 [7]: 6700 nM
- Emax at 125 µM [3]: 51%
- Emax at 125 µM [4]: 67%
- EC50 [5]: 130 nM

SMILES: N#C[C@@H]1C[C@H]1c1c(Cl)ccc2nc(Cn3nc(C(F)(F)F)cc3Cl)cc(=O)n12
- logD [10]: 1.8
- EC50 [6]: 49000 nM
- fCmax [11]: 0.06 µM
- Vd [12]: 7 L/kg
- efflux ratio [1]: 1.6
- fraction unbound [13]: 0.076
- EC50 [8]: > 15000 nM
- half-life [14]: 8 h
- EC50 [7]: 45000 nM
- Emax at 125 µM [3]: 61%
- fAUClast [15]: 0.53 µM·h
- Emax at 125 µM [16]: 96%
- CL free [17]: 132 mL/min/kg
- EC50 [18]: 9500 nM
- Ratio EC50 [19]: > 100
- Emax at 125 µM [4]: 67%
- Kp uu at 1 h [20]: 0.67
- bioavailability [21]: 37%
- clearance [22]: 10 mL/min/kg
- EC50 [23]: 4700 nM
- Ratio EC50 [24]: > 1000
- Ratio [25]: 1.6
- Drug uptake [26]: 94.9%
- fraction unbound [27]: 0.056
- Ratio EC50 [28]: > 1000
- solubility kinetic [29]: 43.5 µM (≈ 18.6 µg/mL)

SMILES: Cc1ccc2nc(Cn3nc(C(F)(F)F)cc3Cl)cc(=O)n2c1C1CC1
- EC50 [6]: 2500 nM
- Emax [2]: 107%
- EC50 [7]: 1300 nM
- Emax at 125 µM [3]: 7%
- Emax at 125 µM [4]: 3%
- EC50 [5]: 280 nM

Now from value to compound:

- efflux ratio [1]: 3.2
- Emax [2]: 120%
- Emax at 125 µM [3]: 28%
- Emax at 125 µM [4]: 15%
- EC50 [5]: 80 nM
SMILES: COc1ccc2nc(Cn3nc(C(F)(F)F)cc3Cl)cc(=O)n2c1[C@@H]1C[C@H]1C#N

- EC50 [6]: 31000 nM
- efflux ratio [1]: 2
- Emax [2]: 137%
- EC50 [7]: 67000 nM
- Emax at 125 µM [3]: 66%
- Emax at 125 µM [4]: 63%
- EC50 [5]: 41 nM
SMILES: Cc1ccc2nc(Cn3nc(C(F)(F)F)cc3Cl)cc(=O)n2c1[C@@H]1C[C@H]1C#N

- Emax [2]: 120%
- Emax at 125 µM [3]: 8%
- Emax at 125 µM [4]: 16%
SMILES: CCNC(=O)c1c(C)sc2nc(Cn3nc(C(F)(F)F)cc3Cl)cc(=O)n12

- EC50 [6]: 410 nM
- Emax [2]: 148%
- EC50 [7]: 810 nM
- Emax at 125 µM [3]: 90%
- Emax at 125 µM [4]: 90%
- EC50 [5]: 24 nM
SMILES: N#C[C@@H]1C[C@H]1c1cccc2nc(Cn3nc(C(F)(F)F)cc3Cl)cc(=O)n12

- Emax [2]: 116%
- Emax at 125 µM [3]: 51%
- Emax at 125 µM [4]: 32%
- EC50 [5]: 270 nM
SMILES: Cc1sc2nc(Cn3nc(C(F)(F)F)cc3Cl)cc(=O)n2c1C1CC1

- EC50 [6]: 16000 nM
- efflux ratio [1]: 2.1
- Emax [2]: 142%
- EC50 [7]: 27000 nM
- Emax at 125 µM [3]: 27%
- Emax at 125 µM [4]: 77%
SMILES: N#C[C@@H]1C[C@H]1c1cc(C(F)(F)F)cc2nc(Cn3nc(C(F)(F)F)cc3Cl)cc(=O)n12

- EC50 [6]: 460 nM
- efflux ratio [1]: 1.5
- Emax [2]: 151%
- EC50 [7]: 3100 nM
- Emax at 125 µM [3]: 67%
- Emax at 125 µM [4]: 69%
- EC50 [5]: 21 nM
SMILES: N#C[C@@H]1C[C@H]1c1c(F)ccc2nc(Cn3nc(C(F)(F)F)cc3Cl)cc(=O)n12

- EC50 [8]: 5700 nM
- TIME [9]: 0.000584 h
SMILES: N#C[C@@H]1C[C@H]1c1c(C(F)(F)F)sc2nc(Cn3nc(C(F)(F)F)cc3Cl)cc(=O)n12

- EC50 [6]: 210 nM
- efflux ratio [1]: 2.2
- Emax [2]: 144%
- EC50 [7]: 3100 nM
- Emax at 125 µM [3]: 86%
- Emax at 125 µM [4]: 83%
SMILES: Cc1cc([C@@H]2C[C@H]2C#N)n2c(=O)cc(Cn3nc(C(F)(F)F)cc3Cl)nc2c1

Source: ChEMBL document CHEMBL3870360, “GluN2A-Selective Pyridopyrimidinone Series of NMDAR Positive Allosteric Modulators with an Improved in Vivo Profile” (ACS Med Chem Lett, 2017)
